Data published in US4837228A, “Antiinflammatory and antimicrobial compounds and compositions” (The University of Mississippi, priority 1982, dated 1989).
≈ marks a conversion by molar mass, not a printed value. Entries after “also recorded” stand apart in the source; their conditions may differ. Like-named read-outs stand apart in the source and are kept apart here.

Tests used:
[1] = inducement of hypothermia in mice (rectal temperature); format: in vivo; details: 100 mg/kg i.p.
Method: CBC (100 mg/kg) was prepared in emulsion form with 3% Tween 60 and 3% Arlacel in normal saline (0.9%) in such a way as to permit a volume of […] of body weight to be injected intraperitoneally into male mice weighing between 32 and 38 grams.
The animals were divided into groups of 10, and body temperatures were recorded with a multichannel Yellow Springs Telethermometer and Thermistor probes. During the experiment, the mice were confined in plastic restraint tubes. They were allowed 45-60 min. for adaption to the restraint tubes and to rectal thermister before a pre-drug baseline temperature reading was taken. Body temperature readings were obtained at 0.5, 1.0, 2.0, 3.0 and 4.0 hrs. post-CBC administration.
The mean (±S.E.) decrease in temperature from the preinjection baseline reading for saline-, vehicle-, and CBC-treated mice were calculated and statistical analyses were conducted using the two-tailed Student's t test.

Aspergillus niger = assay: agar well diffusion assay, A. niger; format: cell-based; details: from edge of agar well
Method: (§1) Both qualitative and quantitative screens were performed. Qualitative screening was accomplished using the agar well diffusion assay technque while quantitative screening was accomplished by the two-fold (broth) serial dilution method to determine the minimum inhibitory concentration (MIC). Innoculation was accomplished with one loop-full of a 1:10 dilution of the 24-hour-old broth culture, (fungal cultures and M.smegmatis more often required 48 to 72 hours of incubation) of the test organisms in sterile water. Streptomycin sulfate was used as a positive control for antibacterial activity while amphitericin B was used as an antifungal positive control. Organisms utilized in the screens included gram-positive, gram-negative, and acid-fast bacteria as well as different types of fungi. […] An intermediate type activity is seen where R is hydrogen. However, where R is lengthened up to C15 a decrease in activity was noted. Total saturation of the two double bonds in the compounds having a methyl side chain lead, in most cases, to an increase in both antifungal and antibacterial activity.

Mycobacterium smegmatis [2] = assay: MIC, two-fold (broth) serial dilution, M. smegmatis; format: cell-based; details: Mycolicibacterium smegmatis, read-out: MIC
Summary of the method: (§2)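 Inoculation used a single loop of diluted (1:10) 24-hour broth culture suspended in sterile water, with incubation extended to 48–72 hours for fungi and M. smegmatis. Activity is read qualitatively by well diffusion on agar and quantitatively as MIC via twofold dilution series.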

[3] = test system: carrageenan-induced rat paw edema; assay: carrageenan-induced rat paw edema test, oral gavage; format: in vivo; parameters: key to mean difference in volume (MDV): ml; post-injection minus pre-injection mean paw volume; details: for inhibition at 120 mg/kg / inhibition at 240 mg/kg / inhibition at 480 mg/kg: Rattus norvegicus, po, Table 5; for inhibition at 120 mg/kg: read-out: inhibition of carrageenan-induced rat paw edema
Method: In the Rat Paw Edema Test, the rats utilized were divided into test groups of six to eight animals, weighed and marked so that individual rats could be identified; one hour before testing all rats were given a 700 mg/kg intraperitoneal injection of ethyl urethane in distilled water to render them tractable during testing. […] Negative control groups received the vehicle; while positive control groups received a dose of phenylbutazone (PBZ) as shown in Table II. Test compounds were given at doses of 60, 120, 240 and 480 mg/kg. The positive controls were given at 120 mg/kg and 60 mg/kg. Phenylbutazone was prepared for injection by suspending it in normal saline using Tween 60. The rats were then held in group cages for 30 minutes. The volume of the left hind paw was measured using a mercury displacement pleysmograph. The paw is dipped into the mercury until the mercury touches the line above the ankle. Mercury is then withdrawn until the mercury returns to its original level. The amount of mercury removed is measured in milliliters (ml). The mercury can be measured accurately to 0.01 ml. This left hind paw was then injected with 0.1 ml of a 5% w/v solution of viscous carageenan in normal saline. The injection was given between the metatarsal bones using a 27 gauge needle, and the rats then held in group cages for 3 hours. The volume of the left hind paws was measured again in the pleysmograph. The results were computed in the following manner:
a. A mean is taken for both the pre-injection and post-injection paw volume of each test group.
b. The mean difference in volume (MDV) for each test group is computed by subtracting the pre-injection means from the post-injection mean.
c. The percent of control is computed for each test [formula] The percent of control is used to compare the efficacy of the various drug treatments.
d. The percent increase in paw volume is calculated for each group as: [formula] The percent increase is used to compare the amount of edma observed in one experiment to the amount of edma observed in other experiments.
[…] The test was conducted twice, once with nonfasted rats and once with rats that had been fasted during the 24 hour period prior to dosing. The 60 mg/kg phenylbutazone control group was not used in the test with fasted animals. Tween 60 in normal saline was the vehicle control for the non-fasted rats and normal saline was the vehicle control for the fasted rats.

Mycobacterium smegmatis [4] = assay: agar well diffusion assay, M. smegmatis; format: cell-based; details: from edge of agar well
Method: as §1

Staphylococcus aureus = assay: MIC, two-fold (broth) serial dilution, S. aureus; format: cell-based; details: Staphylococcus aureus, read-out: MIC
Summary of the method: as §2

Bacillus subtilis = assay: agar well diffusion assay, B. subtilis; format: cell-based; details: from edge of agar well
Method: as §1

[5] = Table 6, 120 mg/kg oral, non-fasted rats
[6] = Table 6, 240 mg/kg oral, non-fasted rats
[7] = Table 6, 480 mg/kg oral, non-fasted rats
[8] = Table 7, 120 mg/kg oral, fasted rats, doses approximate
[9] = Table 7, 240 mg/kg oral, fasted rats, doses approximate
[10] = Table 7, 480 mg/kg oral (given following saline infusion), fasted rats, doses approximate

## CCCCCc1cc(O)c2c(c1)OC(C)(CCC=C(C)C)C=C2 (stereo not drawn) [CBC (I), 2-methyl-2(4'methyl-pent-3'-enyl)-5-hydroxy-7-pentyl chromene]
[1]
  time of peak hypothermic effect: within the first two hours
[1]; 0.5 hrs
  mean (±S.E.) decrease in rectal temperature: 1.86 ± 0.18 °0
[1]; 1.0 hrs
  mean (±S.E.) decrease in rectal temperature: 2.52 ± 0.26 °0
[1]; 2.0 hrs
  mean (±S.E.) decrease in rectal temperature: 1.93 ± 0.21 °0
[1]; 3.0 hrs
  mean (±S.E.) decrease in rectal temperature: 1.53 ± 0.21 °0
[1]; 4.0 hrs
  mean (±S.E.) decrease in rectal temperature: 1.61 ± 0 °0
[1]; listed as CBC
  hypothermia, significance versus controls: significantly different from saline controls at all readings; also recorded: significantly different from vehicle controls at 0.5, 1.0 and 4.0 hrs
Aspergillus niger; 48 hr
  width of inhibition zone: 2. mm
Aspergillus niger; 72 hr
  width of inhibition zone: 2. mm
Mycobacterium smegmatis [2]; 24 h
  MIC: 12.5 µg/mL (≈ 39.7 µM)
Mycobacterium smegmatis [2]; 48 h
  MIC: 25 µg/mL (≈ 79.5 µM)
[3]; 120 mg/kg oral, fasted rats, N.S.
  inhibition at 120 mg/kg: 35%
[3]; 120 mg/kg oral, nonfasted rats
  inhibition at 120 mg/kg: 21%
[3]; 240 mg/kg oral, fasted rats, * P = 0.01
  inhibition at 240 mg/kg: 67%
[3]; 240 mg/kg oral, nonfasted rats, ** P = 0.05
  inhibition at 240 mg/kg: 34%
[3]; 480 mg/kg oral, fasted rats, ** P = 0.05
  inhibition at 480 mg/kg: 55%
[3]; 480 mg/kg oral, nonfasted rats, * P = 0.01
  inhibition at 480 mg/kg: 50%
[3]; [5]
  mean difference in volume (MDV): 0.496
  percent increase in paw volume: 41.311%
  percent of control: 79.400%
[3]; [6]
  mean difference in volume (MDV): 0.412
  percent increase in paw volume: 38.372%
  percent of control: 66.000%
[3]; [7]
  mean difference in volume (MDV): 0.315
  percent increase in paw volume: 29.200%
  percent of control: 50.400%
[3]; [8]
  mean difference in volume (MDV): 0.409
  percent increase in paw volume: 31.382%
  percent of control: 65.400%
[3]; [9]
  mean difference in volume (MDV): 0.209
  percent increase in paw volume: 15.981%
  percent of control: 53.400%
[3]; [10]
  mean difference in volume (MDV): 0.281
  percent increase in paw volume: 22.321%
  percent of control: 45.000%
[3]; oral, listed as CBC
  antiinflammatory activity compared with PBZ in words: about equally effective at 120 mg/kg in the fasted rats; also recorded: generally more effective in inhibiting edema than was PBZ
Mycobacterium smegmatis [4]; 24 hr
  width of inhibition zone: 15. mm
Mycobacterium smegmatis [4]; 48 hr
  width of inhibition zone: 12. mm
Staphylococcus aureus; 24 h
  MIC: 1.56 µg/mL (≈ 4.96 µM)
Staphylococcus aureus; 48 h
  MIC: 1.56 µg/mL (≈ 4.96 µM)
Bacillus subtilis; 24 hr
  width of inhibition zone: 8.0 mm
Bacillus subtilis; 48 hr
  width of inhibition zone: 5.0 mm
